# Tests used:
# FAO1 or FAO2 = assay: Alcohols used for substrate specificity testing, activity detected with either enzyme; type: biochemical, Candida tropicalis; design: key: X: Activity detected using this substrate with either FAO1 or FAO2; details: final alcohol concentration 200 μM
# Text: The assay procedure used is a modification of an assay used by Kemp et al (1). The assay is a two-enzyme coupled reaction. Dodecanol was used as the substrate for the FAO, which oxidizes the dodecanol to dodecanal. At the same time it reduces molecular oxygen to hydrogen peroxide. A second enzyme in the reaction mixture, peroxidase derived from horseradish (HRP), uses electrons obtained by oxidizing hydrogen peroxide to […] 2,2′-azino-bis(3-ethylbenzthiazoline-6-sulfonic acid) (ABTS) in the reaction mixture. […] absorbs strongly at 405 nm. The quality of HRP is important, since it has been observed that commercially obtained preparations vary in quality. It is necessary, therefore, to obtain preparations of highest purity. The HRP (Sigma #P8415) was made at a concentration of 2 mg/ml (≈250 units/mg) in 50 mM potassium phosphate buffer, pH 7.6.
# After adding the extract, the activity was generally read at 405 nm for one minute at room temperature. The amount of extract that was added to the reaction mixture was varied so that the activity fell within the range of 0.2 to 1.0 ΔA^405 nm/min. Alcohol oxidase activity was reported as specific activity units/mg protein (1 unit=μmole substrate oxidized/min). An extinction coefficient at 405 nm of 18.4 was used for ABTS and was equivalent to 0.5 mM oxidized substrate. In certain substrate-specificity experiments, 200 mM HEPES buffer, pH 7.6, containing 0.5% Triton X100 was used in place of the 200 mM HEPES buffer in the reaction mixture described above. The detergent aided in solubilizing some of the more water-insoluble substrates tested.
# FAO1, FAO2a and FAO2a′ were tested for their activity with various alcohols. The alcohols shown in Table 5 were prepared in 20 mM stock solutions in acetone. Alcohols showing activity with either FAO1 or FAO2a are indicated. The final concentration of the alcohol used in the substrate specificity experiment was 200 μM. These same alcohols were used to determine the Km and Vmax of FAO1, FAO2a, and FAO2a′. […] There was a big drop in activity in going from a C8 alcohol to a C6 alcohol with FAO1, FAO2a, and FAO2a′. FAO2a and FAO2a′ oxidize 2-octanols fairly well; however no activity was detected with FAO1. In contrast, FAO1 oxidizes ω-hydroxy fatty acids well, but no activity for ω-hydroxy fatty acids was measured with FAO2a and FAO2a′ (FIG. 6). […] Although the substrate specificity of FAO2b was not performed, due to the close homology with FAO2a, it is likely to be very similar.
# fatty alcohol oxidase = assay: FAO activity of extracts made from fermentor samples induced with HOSFFA; type: biochemical, Candida tropicalis; details: data not shown
# Text: (§1) The assay is a two-enzyme coupled reaction. […] ABTS absorbs strongly at 405 nm.
# [1] = test system: FAO from C. tropicalis (ATCC 20336); details: cited from earlier work; for Oxidation by purified C. tropicalis FAO: purified enzyme (ref. 3); for Oxidation by C. tropicalis FAO (Kemp et al. 1988): cells grown on hexadecane
# FAO2a = FAO2a (Candida tropicalis, UniProt Q6QIR5, S177L); type: biochemical; details: for Activity of FAO2a with the alcohol (substrate specificity): 200 μM alcohol, relative to dodecanol set at 100%, FIG. 4-6; for Km FAO2a: pH 7.6, HEPES/Triton X-100 buffer, enzyme constant, alcohol concentration varied
# Sequence of FAO2a (Q6QIR5 whole entry S177L): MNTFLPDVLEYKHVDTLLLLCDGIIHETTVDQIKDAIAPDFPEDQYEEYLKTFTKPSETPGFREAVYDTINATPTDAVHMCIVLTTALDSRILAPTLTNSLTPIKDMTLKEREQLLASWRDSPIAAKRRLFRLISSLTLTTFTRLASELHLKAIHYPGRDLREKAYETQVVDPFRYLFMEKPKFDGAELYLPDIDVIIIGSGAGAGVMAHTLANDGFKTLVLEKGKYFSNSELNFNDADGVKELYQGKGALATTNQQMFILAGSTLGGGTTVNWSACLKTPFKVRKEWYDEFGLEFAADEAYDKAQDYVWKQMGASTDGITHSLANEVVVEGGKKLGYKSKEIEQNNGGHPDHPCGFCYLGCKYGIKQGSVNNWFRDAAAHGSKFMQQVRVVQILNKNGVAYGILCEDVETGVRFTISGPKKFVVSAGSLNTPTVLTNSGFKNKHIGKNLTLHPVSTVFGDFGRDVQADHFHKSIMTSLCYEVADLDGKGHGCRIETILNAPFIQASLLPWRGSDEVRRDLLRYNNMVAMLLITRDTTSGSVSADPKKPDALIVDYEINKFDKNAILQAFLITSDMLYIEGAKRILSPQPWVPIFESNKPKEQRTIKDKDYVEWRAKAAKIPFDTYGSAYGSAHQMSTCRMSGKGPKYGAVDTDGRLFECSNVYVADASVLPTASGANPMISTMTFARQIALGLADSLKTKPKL
# Text: as §1
# FAO2a′ = FAO2a′ (Candida tropicalis, UniProt Q6QIR5); assay: FAO enzyme assay (HRP/ABTS coupled) with FAO2a′ (CTG-codon-altered FAO2a) expressed in E. coli: substrate specificity and Km; details: 200 μM alcohol; relative to dodecanol set at 100%; FIG. 4-6
# Sequence of FAO2a′ (Q6QIR5 entry or part of it): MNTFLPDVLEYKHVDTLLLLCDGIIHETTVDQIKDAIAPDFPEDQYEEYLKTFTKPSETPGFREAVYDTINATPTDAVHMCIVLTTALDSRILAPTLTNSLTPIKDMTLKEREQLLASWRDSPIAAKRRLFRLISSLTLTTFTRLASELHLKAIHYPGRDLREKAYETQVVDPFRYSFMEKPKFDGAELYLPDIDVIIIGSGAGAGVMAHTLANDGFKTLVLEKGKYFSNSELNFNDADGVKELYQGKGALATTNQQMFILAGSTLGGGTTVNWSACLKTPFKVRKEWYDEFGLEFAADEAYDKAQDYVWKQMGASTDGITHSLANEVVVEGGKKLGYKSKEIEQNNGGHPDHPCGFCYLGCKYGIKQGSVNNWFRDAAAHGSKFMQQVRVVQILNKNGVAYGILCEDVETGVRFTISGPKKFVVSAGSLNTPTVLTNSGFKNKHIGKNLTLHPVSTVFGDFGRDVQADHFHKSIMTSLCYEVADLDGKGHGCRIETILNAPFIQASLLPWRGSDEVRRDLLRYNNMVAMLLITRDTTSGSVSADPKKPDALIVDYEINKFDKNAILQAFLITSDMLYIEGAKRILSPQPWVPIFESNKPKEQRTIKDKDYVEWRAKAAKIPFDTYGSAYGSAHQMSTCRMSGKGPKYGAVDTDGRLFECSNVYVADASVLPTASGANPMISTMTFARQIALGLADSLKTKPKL
# Description: The assay is a two-enzyme coupled reaction. […] At the same time it reduces molecular oxygen to hydrogen peroxide. A second enzyme in the reaction mixture, peroxidase derived from horseradish (HRP), uses electrons obtained by oxidizing hydrogen peroxide to reduce 2,2′-azino-bis(3-ethylbenzthiazoline-6-sulfonic acid) (ABTS) in the reaction mixture. Reduced ABTS absorbs strongly at 405 nm. […] The HRP (Sigma #P8415) was made at a concentration of 2 mg/ml (≈250 units/mg) in 50 mM potassium phosphate buffer, pH 7.6.
# Initially, only the properties of the enzyme derived from the native sequence of FAO2a were determined. […] The properties of both FAO2a and FAO2a′ were determined as described in the following examples.
# FAO1, FAO2a and FAO2a′ were tested for their activity with various alcohols. The alcohols shown in Table 5 were prepared in 20 mM stock solutions in acetone. […] The final concentration of the alcohol used in the substrate specificity experiment was 200 μM. These same alcohols were used to determine the Km and Vmax of FAO1, FAO2a, and FAO2a′.
# (§2) In this case, all reactions contained the same amount of acetone (20 μl/ml).
# FAO1 = FAO1 (Candida tropicalis, UniProt Q6QIR6); assay: FAO enzyme assay (HRP/ABTS coupled) with FAO1 expressed in E. coli: substrate specificity and Km; details: for Activity of FAO1 with the alcohol (substrate specificity): 200 μM alcohol, relative to dodecanol set at 100%, FIG. 4-6
# Sequence of FAO1 (Q6QIR6 entry or part of it): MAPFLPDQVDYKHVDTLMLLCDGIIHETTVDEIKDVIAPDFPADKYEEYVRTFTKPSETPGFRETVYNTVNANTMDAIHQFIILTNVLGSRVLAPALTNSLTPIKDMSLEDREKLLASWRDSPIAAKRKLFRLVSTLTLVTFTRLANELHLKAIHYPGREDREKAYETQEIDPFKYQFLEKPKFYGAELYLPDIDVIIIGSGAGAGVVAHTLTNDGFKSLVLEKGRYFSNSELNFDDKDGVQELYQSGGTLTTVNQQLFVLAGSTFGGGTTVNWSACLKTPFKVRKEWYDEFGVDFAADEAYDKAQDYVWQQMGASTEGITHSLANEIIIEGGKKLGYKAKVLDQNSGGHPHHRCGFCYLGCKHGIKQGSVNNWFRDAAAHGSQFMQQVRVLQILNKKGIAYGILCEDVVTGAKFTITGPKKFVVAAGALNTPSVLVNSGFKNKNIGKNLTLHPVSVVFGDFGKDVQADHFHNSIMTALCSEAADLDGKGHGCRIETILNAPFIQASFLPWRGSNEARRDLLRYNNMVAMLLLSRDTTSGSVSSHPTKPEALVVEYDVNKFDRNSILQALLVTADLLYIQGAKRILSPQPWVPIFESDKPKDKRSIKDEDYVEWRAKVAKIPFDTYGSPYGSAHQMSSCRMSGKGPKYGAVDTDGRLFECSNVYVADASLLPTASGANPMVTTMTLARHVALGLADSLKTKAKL
# Text: as §1
# FAO from C. maltosa = details: cited from earlier work
# C=CCCCCCCCCCO = assay: purified protein, by the assay type
# CCCCCCCCCCCCCCCCO = assay: purified protein, by the assay type
# CCCCCCCCCCCCCCO = assay: purified protein, by the assay type
# CCCCCCCCCCCCO = assay: purified protein, by the assay type
# CCCCCCCCCCO = assay: purified protein, by the assay type
# CCCCCCCCO = assay: purified protein, by the assay type
# O=C(O)CCCCCCCCCCCCCCCO = assay: purified protein, by the assay type; details: other: pH 7.6, HEPES/Triton X-100 buffer, enzyme constant, alcohol concentration varied
# Text: The assay is a two-enzyme coupled reaction. […] At the same time it reduces molecular oxygen to hydrogen peroxide. A second enzyme in the reaction mixture, peroxidase derived from horseradish (HRP), uses electrons obtained by oxidizing hydrogen peroxide to reduce 2,2′-azino-bis(3-ethylbenzthiazoline-6-sulfonic acid) (ABTS) in the reaction mixture. Reduced ABTS absorbs strongly at 405 nm. The quality of HRP is important, since it has been observed that commercially obtained preparations vary in quality. It is necessary, therefore, to obtain preparations of highest purity. The HRP (Sigma #P8415) was made at a concentration of 2 mg/ml (≈250 units/mg) in 50 mM potassium phosphate buffer, pH 7.6.
# FAO1, FAO2a and FAO2a′ were tested for their activity with various alcohols. […] The final concentration of the alcohol used in the substrate specificity experiment was 200 μM. These same alcohols were used to determine the Km and Vmax of FAO1, FAO2a, and FAO2a′.
# as §2
# OCCCCCCCCCCCCCCCCO = assay: purified protein, by the assay type
# OCCCCCCCCCCO = assay: purified protein, by the assay type
# CCCCCCCCC(C)O = assay: purified protein, by the assay type
# CCCCCCCCCC(C)O = assay: purified protein, by the assay type
# CCCCCCCCCCC(C)O = assay: purified protein, by the assay type
# CCCCCCCCCCC(O)CO = assay: purified protein, by the assay type
# CCCCCCCCCCCCCCC(C)O = assay: purified protein, by the assay type
# [2] = other: pH 7.6, HEPES/Triton X-100 buffer, enzyme constant, alcohol concentration varied
# [3] = other: 0.1 M HEPES, pH 7.6, substrate stocks in acetone (20 μl/ml)
molecule,measurement,setting,value
16-Hydroxydodecanoic acid,Activity Detected,FAO1 or FAO2,X
"CCCCCCCCCCC(O)CO (centres unmarked) [1,2-Dodecanediol]",Activity Detected,FAO1 or FAO2,X
"CCCCCCC(O)CO (centres unmarked) [1,2-Octanediol]",Activity Detected,FAO1 or FAO2,X
"OCCCCCCCCCCO [1,10-Decanediol]",Activity Detected,FAO1 or FAO2,X
"OCCCCCCCCCCCCCCCCO [1,16-Hexadecanediol]",Activity Detected,FAO1 or FAO2,X
CCCCCCCCC(C)O (centres unmarked) [2-Decanol],Activity Detected,FAO1 or FAO2,X
CCCCCCCCCCC(C)O (centres unmarked) [2-Dodecanol],Activity Detected,FAO1 or FAO2,X
same,Activity of extracts from HOSFFA-induced fermentor samples with the alcohol,fatty alcohol oxidase,no activity
same,Oxidation by purified C. tropicalis FAO,[1],additional activity
CCCCCCCCCCCCCCC(C)O (centres unmarked) [2-Hexadecanol],Activity Detected,FAO1 or FAO2,X
CCCCCCCCCC(C)O (centres unmarked) [2-Undecanol],Activity Detected,FAO1 or FAO2,X
O=C(O)CCCCCCCCCO [10-Hydroxydecanoic acid],Activity Detected,FAO1 or FAO2,X
C=CCCCCCCCCCO [10-Undecen-1-ol],Activity of FAO2a with the alcohol (substrate specificity),FAO2a,much better than FAO1
same,Activity Detected,FAO1 or FAO2,X
same,Activity of FAO2a′ with the alcohol (substrate specificity),FAO2a′,much better than FAO1
O=C(O)CCCCCCCCCCCO [12-Hydroxydodecanoic acid],Activity Detected,FAO1 or FAO2,X
same,Oxidation by C. tropicalis FAO (Kemp et al. 1988),[1],not
same,Oxidation by purified C. tropicalis FAO,[1],additional activity
"O=C(O)CCCCCCCCCCCCCCCO [16-hydroxy-hexadecanoic, 16-hydroxyhexadecanoic acid]",Km FAO1,"FAO1; pH 7.6, HEPES/Triton X-100 buffer, enzyme constant, alcohol concentration varied",lowest Km value
same,Activity of extracts from HOSFFA-induced fermentor samples with the alcohol,fatty alcohol oxidase,good activity
same,Oxidation by C. tropicalis FAO (Kemp et al. 1988),[1],oxidize
same,Oxidation by C. maltosa FAO,FAO from C. maltosa,fairly low rates of oxidation
CCCCCCCCCCO [Decanol],Activity Detected,FAO1 or FAO2,X
CCCCCCCCCCCCO [Dodecanol],Activity of FAO2a with the alcohol (substrate specificity),FAO2a,preferred 1-dodecanol above all other 1-alkanols
same,Km FAO2a,FAO2a,lowest Km values
same,Activity Detected,FAO1 or FAO2,X
same,Oxidation by C. tropicalis FAO (Kemp et al. 1988),[1],maximal activity
same,Activity of FAO2a′ with the alcohol (substrate specificity),FAO2a′,preferred 1-dodecanol above all other 1-alkanols
CCCCCCCCCCCCCCCCO [Hexadecanol],Activity Detected,FAO1 or FAO2,X
CCCCCCO [Hexanol],Activity Detected,FAO1 or FAO2,X
CCCCCCCCO [Octanol],Activity of FAO1 with the alcohol (substrate specificity),FAO1,preferred 1-octanol as substrate
same,Activity Detected,FAO1 or FAO2,X
same,Oxidation by C. maltosa FAO,FAO from C. maltosa,highest activity
CCCCCCCCCCCCCCO [Tetradecanol],Activity of FAO1 with the alcohol (substrate specificity),FAO1,the preferred longer-chain alcohol
same,Km FAO2a,FAO2a,lowest Km values
same,Activity Detected,FAO1 or FAO2,X
FAO1 (Candida tropicalis),Km,C=CCCCCCCCCCO; [2],9.9 μM μM
same,Km,CCCCCCCCCCCCCCCCO; [2],11.9 μM μM
same,Km,CCCCCCCCCCCCCCO; [2],28.1 μM μM
same,Km,CCCCCCCCCCCCO; [2],14.9 μM μM
same,Km,CCCCCCCCCCO; [2],15.1 μM μM
same,Km,CCCCCCCCO; [2],41.0 μM μM
same,Km,O=C(O)CCCCCCCCCCCCCCCO,7.4 μM μM
same,Km,OCCCCCCCCCCCCCCCCO; [2],10.3 μM μM
same,Km,OCCCCCCCCCCO; [2],67.0 μM μM
FAO2a (Candida tropicalis; S177L),Km,C=CCCCCCCCCCO; [2],45 µM
same,Km,CCCCCCCCC(C)O; [2],934 µM
same,Km,CCCCCCCCCC(C)O; [2],141 µM
same,Km,CCCCCCCCCCC(C)O; [2],41.3 µM
same,Km,CCCCCCCCCCC(O)CO; [2],998 µM
same,Km,CCCCCCCCCCCCCCC(C)O; [2],350 µM
same,Km,CCCCCCCCCCCCCCCCO; [2],56 µM
same,Km,CCCCCCCCCCCCCCO; [2],4.6 µM
same,Km,CCCCCCCCCCCCO; [2],2.5 µM
same,Km,CCCCCCCCCCO; [2],74 µM
same,Km,CCCCCCCCO; [2],503 µM
same,Km,OCCCCCCCCCCCCCCCCO; [2],37.3 µM
same,Km,OCCCCCCCCCCO; [2],425 µM
FAO2a′ (Candida tropicalis),Km,C=CCCCCCCCCCO; [3],36.1 µM
same,Km,CCCCCCCCC(C)O; [3],1090 µM
same,Km,CCCCCCCCCC(C)O; [3],162 µM
same,Km,CCCCCCCCCCC(C)O; [3],75.3 µM
same,Km,CCCCCCCCCCC(O)CO; [3],928 µM
same,Km,CCCCCCCCCCCCCCC(C)O; [3],720 µM
same,Km,CCCCCCCCCCCCCCCCO; [3],85 µM
same,Km,CCCCCCCCCCCCCCO; [3],2.4 µM
same,Km,CCCCCCCCCCCCO; [3],4.4 µM
same,Km,CCCCCCCCCCO; [3],69.6 µM
same,Km,CCCCCCCCO; [3],654 µM
same,Km,OCCCCCCCCCCCCCCCCO; [3],16.3 µM
same,Km,OCCCCCCCCCCO; [3],1607 µM

# — patent publication US7160708B2, “Fatty alcohol oxidase genes and proteins from Candida tropicalis and methods relating thereto” (Cognis Corporation, priority 2002, dated 2007)
